Source: patent US20180064654A1, “Sheet Packs And Methods For Treating Skin” (ELC Management LLC, priority 2015, published 2018)

How the values were obtained:
[1] = system: PER1 gene expression in skin cells; test: PER1 gene expression in skin cells; type: cell-based
[2] = system: PER1 gene expression in skin cells; conditions: "has been shown", no test described; cited from earlier work
[3] = system: per1 gene expression in normal human epidermal keratinocytes (NHEK); test: per1 promoter luciferase reporter assay in NHEK; type: cell-based
Method: Perl gene expression in normal human epidermal keratinocytes (NHEK) donors was tested in control cells and cells exposed to ozone using the reporter assay. NHEK were plated at a concentration of 3×10^4 in a black walled, 96 well microtiter plate for 3 hours in EpiLife media. The cells were then transfected in supplement free media with a plasmid that contained luciferase as the reporter gene ligated upstream to a per1 promoter element. In addition, transfection was facilitated by addition of Plus and Lipfectamine reagents (Invitrogen, Carlsbad, Calif.). Transfection in supplement free media was carried out for an additional four hours. This “starves” the cells which in turn causes them to be synchronized in their circadian rhythms. After transfection, full media neat and containing ozone was added and incubated for 16 hours. Then a luciferase reagent, Glo-Bright (Promega Corporation, Madison, Wis.) was added and luminescence measures in an Lmax luminometer (Molecular Devices, Sunnyvale, Calif.).
The test was performed again, and in addition, a peptide with per1 gene activity was tested.
In both tests, NHEK were treated at the start of the test (0 hours) so that they were all synchronized with respect to their circadian rhythm, and expressing per1 at the same time. […]

Compound: O=C(/C=C/c1ccc(O)c(O)c1)O[C@@H](C(=O)O)[C@@H](O)C(=O)O [caftaric acid]
- PER1 gene expression [1]: does not increase PER1 gene expression

Compound: O=C(/C=C/c1ccc(O)c(O)c1)O[C@@H](C(=O)O)[C@@H](OC(=O)/C=C/c1ccc(O)c(O)c1)C(=O)O [cichoric acid]
- activation of PER / PER1 [2]: suitable activator of PER and PER1

Compound: O=[O+][O-] [ozone]
- per1 gene expression ([3]; 24 hours, single treatment, compared with untreated cells (FIG. 6)): lesser, and about equivalent, expression of PER1
- per1 activity ([3]; ozone treated NHEK at 0, 6 and 12 hours, vs untreated cells (FIG. 5)): decrease in per1 activity
